According to PMC4552778 (European Journal of Drug Metabolism and Pharmacokinetics, 2014):
Numbered stars: 1 amine (or outer) side, 2 acyl side, 3 side chain; on linkers, the order of the positions; unused ones are H or OH. Bridge positions count the residues as written; N and C are the ends. Square brackets hold non-standard residues; d marks the D form. Peptide text beside a SMILES is read from it. * marks the point of attachment. hTyr(3S-OH,4S-OH,3'-OSO3H) = N[C@H](C(=O)O)[C@H](O)[C@@H](O)c1ccc(O)c(OS(=O)(=O)O)c1; Orn(4R-OH,5R-OH) = O=C([C@H](C[C@@H](O)[C@@H](O)N[*:3])N[*:1])[*:2]; Pro(3S-OH,4S-Me) = C[C@H]1CN[C@H](C(=O)O)[C@H]1O; X1 = CCCCCOc1ccc(-c2cc(-c3ccc(C(=O)*)cc3)no2)cc1; Gln(3R-OH) = NC(=O)C[C@@H](O)[C@H](N)C(=O)O; Hyp = O=C(O)[C@@H]1C[C@@H](O)CN1

Legend:
plasma protein = assay: Micafungin plasma protein binding by ultrafiltration; assay type: in vitro ADME, human; settings: 37 °C, range
[1] = tested on: plasma protein, primarily albumin; settings: primarily to albumin; ref Astellas Pharma; Hebert et al. [2005b]; cited from earlier work
Safety assessments = assay type: in vivo, human; settings: six AEs reported by four subjects of 19; single 100 mg IV dose
[2] = ref Dowell et al. [2007]; cited from earlier work

For `CCCCCOc1ccc(-c2cc(-c3ccc(C(=O)N[C@H]4C[C@@H](O)[C@@H](O)NC(=O)[C@@H]5[C@@H](O)[C@@H](C)CN5C(=O)[C@H]([C@H](O)CC(N)=O)NC(=O)[C@H]([C@H](O)[C@@H](O)c5ccc(O)c(OS(=O)(=O)O)c5)NC(=O)[C@@H]5C[C@@H](O)CN5C(=O)[C@H]([C@@H](C)O)NC4=O)cc3)no2)cc1` [micafungin, Micafungin] (X1-[Orn(4R-OH,5R-OH)]T[Hyp][hTyr(3S-OH,4S-OH,3'-OSO3H)][Gln(3R-OH)][Pro(3S-OH,4S-Me)]; lactam 1-C), the Protein binding (plasma protein; healthy subjects, measurable in three subjects) is listed as 92.4–99.0%, the Protein binding (plasma protein; subjects with severe hepatic dysfunction, measurable in five subjects) is listed as 86.1–97.6% and the “Protein bound in plasma” value [1] is listed as over 99%. The “Adverse events: seriousness and relation to drug” value (Safety assessments) was “None of these AEs was considered to be serious or to be related to micafungin”.
In the case of anidulafungin, the “Lower exposure in subjects with severe hepatic dysfunction compared with healthy controls” value [2] is given as 33%.
